The text below walks through data of US20230117680A1, “CYCLOPHILIN D INHIBITORS AND USES THEREOF” (The Broad Institute, Inc., priority 2019, published 2023).

In one experiment the target is CypH (Homo sapiens, UniProt O43447). Description: chymotrypsin coupled PPIase assay, CypH inhibition. It is filed as biochemical. Conditions: result in words. The procedure:
(§1) Following the synthesis of the indicated library members, in vitro inhibition (IC50) assays of these hits were conducted to obtain IC50 inhibitory data. For the IC50 assays, a chymotrypsin coupled PPIase assay using Suc-AAPF-AMC as the peptide substrate was used, whereby isomerization of a peptide substrate Suc-AAPF-AMC from the cis to trans conformation allowed for proteolysis via excess a-chymotrypsin, releasing the C-terminal coumarin fluorophore. […] Other non-inhibitor library members were also checked for binding via SPR, but produced the same profile as the prolyl isomerase assay.
(§2) Subsequently, to determine if the compounds could both access the S2 pocket and display CypD specificity, JOMBtrans and compound 49 were screened against the 10 other cyclophilins with reported prolyl isomerase activity. […] Co-crystal structures of JOMBtrans and 49 were solved with CypD. […] Three further H-bonds with the macrocycle's backbone and CypD were observed along with a cation-n interaction. […] The benzyl group on the piperidine ring altered the conformation of the macrocycle to open up two new hydrogen bonding interactions with CypD. […] This improvement in specificity compared to JOMBtrans signified that more CypD specific compounds can be garnered by derivatization into the S2 pocket.

For the next experiment, the target named is T1, CypG (Homo sapiens, UniProt Q13427).
T1 sequence (Q13427 1-754): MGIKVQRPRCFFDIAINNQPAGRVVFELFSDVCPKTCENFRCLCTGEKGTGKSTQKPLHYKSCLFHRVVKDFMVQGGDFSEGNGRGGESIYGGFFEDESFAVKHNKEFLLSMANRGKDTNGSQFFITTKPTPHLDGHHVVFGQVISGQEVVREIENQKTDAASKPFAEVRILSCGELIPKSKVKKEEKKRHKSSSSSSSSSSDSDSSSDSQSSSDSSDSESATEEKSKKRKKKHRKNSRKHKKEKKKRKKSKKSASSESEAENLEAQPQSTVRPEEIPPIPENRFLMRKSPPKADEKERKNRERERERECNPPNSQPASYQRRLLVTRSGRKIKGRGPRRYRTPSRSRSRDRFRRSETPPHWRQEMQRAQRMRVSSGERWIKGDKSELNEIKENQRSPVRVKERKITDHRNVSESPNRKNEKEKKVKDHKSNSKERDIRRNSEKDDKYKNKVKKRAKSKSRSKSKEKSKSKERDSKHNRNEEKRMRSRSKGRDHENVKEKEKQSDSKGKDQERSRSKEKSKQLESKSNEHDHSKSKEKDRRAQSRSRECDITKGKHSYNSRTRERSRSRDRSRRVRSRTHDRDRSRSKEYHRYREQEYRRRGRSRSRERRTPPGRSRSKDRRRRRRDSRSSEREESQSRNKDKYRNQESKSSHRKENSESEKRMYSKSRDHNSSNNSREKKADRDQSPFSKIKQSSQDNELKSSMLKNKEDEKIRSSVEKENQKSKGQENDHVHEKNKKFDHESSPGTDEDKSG
In words: chymotrypsin coupled PPIase assay, CypG inhibition. Conditions: result in words. Type of experiment: biochemical. How it is done:
as §1, §2

The target in another experiment is T2, NKTR (Homo sapiens, UniProt P30414).
T2 sequence (P30414 1-1462): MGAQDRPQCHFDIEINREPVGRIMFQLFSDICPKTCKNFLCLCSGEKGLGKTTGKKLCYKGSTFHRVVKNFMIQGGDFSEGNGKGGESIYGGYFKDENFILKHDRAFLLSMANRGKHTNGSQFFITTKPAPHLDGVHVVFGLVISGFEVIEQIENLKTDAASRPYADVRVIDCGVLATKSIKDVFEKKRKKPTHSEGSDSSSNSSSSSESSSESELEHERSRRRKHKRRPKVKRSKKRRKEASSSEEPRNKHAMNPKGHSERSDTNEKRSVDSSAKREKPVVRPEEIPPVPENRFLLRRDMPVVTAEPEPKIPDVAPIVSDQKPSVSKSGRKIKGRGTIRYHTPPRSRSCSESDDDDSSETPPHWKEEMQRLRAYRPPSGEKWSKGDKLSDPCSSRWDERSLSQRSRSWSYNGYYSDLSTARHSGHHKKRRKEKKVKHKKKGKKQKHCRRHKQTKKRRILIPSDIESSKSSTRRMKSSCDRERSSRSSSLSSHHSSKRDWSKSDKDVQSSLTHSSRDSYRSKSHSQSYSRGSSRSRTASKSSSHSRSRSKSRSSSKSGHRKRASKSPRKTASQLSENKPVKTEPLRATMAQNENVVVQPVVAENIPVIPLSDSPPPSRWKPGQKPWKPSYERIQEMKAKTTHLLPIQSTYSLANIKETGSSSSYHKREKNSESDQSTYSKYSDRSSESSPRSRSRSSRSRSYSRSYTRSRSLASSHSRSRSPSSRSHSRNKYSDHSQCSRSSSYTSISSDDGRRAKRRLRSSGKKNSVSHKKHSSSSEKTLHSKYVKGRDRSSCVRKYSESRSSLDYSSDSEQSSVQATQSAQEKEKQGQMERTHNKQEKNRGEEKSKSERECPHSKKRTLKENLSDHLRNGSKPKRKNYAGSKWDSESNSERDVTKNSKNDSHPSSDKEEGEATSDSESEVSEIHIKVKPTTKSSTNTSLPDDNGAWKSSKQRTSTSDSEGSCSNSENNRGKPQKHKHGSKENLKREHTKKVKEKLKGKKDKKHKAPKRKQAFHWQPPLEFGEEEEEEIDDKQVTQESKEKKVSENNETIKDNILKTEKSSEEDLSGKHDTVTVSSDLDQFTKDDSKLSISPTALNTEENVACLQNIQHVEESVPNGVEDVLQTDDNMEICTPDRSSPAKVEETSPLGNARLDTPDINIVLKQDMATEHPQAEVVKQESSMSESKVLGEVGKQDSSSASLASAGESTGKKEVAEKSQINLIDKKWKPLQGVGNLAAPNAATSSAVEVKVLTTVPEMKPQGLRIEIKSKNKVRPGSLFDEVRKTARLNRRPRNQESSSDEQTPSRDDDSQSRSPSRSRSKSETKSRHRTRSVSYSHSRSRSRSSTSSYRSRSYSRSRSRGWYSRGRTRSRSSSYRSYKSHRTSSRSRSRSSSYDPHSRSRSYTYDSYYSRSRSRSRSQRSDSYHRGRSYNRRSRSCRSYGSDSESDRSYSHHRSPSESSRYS
Description: chymotrypsin coupled PPIase assay, NKTR inhibition. Type of experiment: biochemical. To be noted: result in words. The procedure: as §1, §2

For a further experiment, the target named is T3, PPWD1 (Homo sapiens, UniProt Q96BP3).
T3 sequence (Q96BP3 1-646): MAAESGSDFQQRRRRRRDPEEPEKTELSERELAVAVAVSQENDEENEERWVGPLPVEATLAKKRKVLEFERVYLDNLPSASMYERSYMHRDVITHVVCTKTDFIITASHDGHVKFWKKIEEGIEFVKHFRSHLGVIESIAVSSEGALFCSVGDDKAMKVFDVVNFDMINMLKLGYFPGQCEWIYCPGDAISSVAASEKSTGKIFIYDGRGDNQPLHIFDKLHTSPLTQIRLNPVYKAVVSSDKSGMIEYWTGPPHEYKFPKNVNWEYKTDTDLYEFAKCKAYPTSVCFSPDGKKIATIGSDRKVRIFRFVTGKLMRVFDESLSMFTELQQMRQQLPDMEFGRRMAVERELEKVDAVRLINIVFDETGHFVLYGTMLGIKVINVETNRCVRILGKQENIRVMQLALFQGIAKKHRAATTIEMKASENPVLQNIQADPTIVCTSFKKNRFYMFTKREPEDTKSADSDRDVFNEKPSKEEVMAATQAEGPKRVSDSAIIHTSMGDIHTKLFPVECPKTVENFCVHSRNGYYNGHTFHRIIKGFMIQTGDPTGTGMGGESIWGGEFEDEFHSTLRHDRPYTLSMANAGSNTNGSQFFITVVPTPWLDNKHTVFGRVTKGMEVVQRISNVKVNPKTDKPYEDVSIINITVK
In words: chymotrypsin coupled PPIase assay, PPWD1 inhibition. Conditions: result in words. It is filed as biochemical. The procedure: as §1, §2

Experiment [1] has as its system mPTP in isolated mice kidney mitochondria. In words: inhibition of mPTP in isolated mitochondria (tolerated Ca2+ pulses before full mPTP opening). Conditions: result in words. The procedure: In isolated mice kidney mitochondria, the maximum number of Ca^2+ pulses that could be tolerated before full mPTP opening was measured (see FIG. 24).
Experiment [2] deals with 10 other cyclophilins with reported prolyl isomerase activity. In words: cyclophilin specificity screen: CypD against the other cyclophilins. It is filed as biochemical. The text has this: (§3) The selectivity of a compound described herein in inhibiting the activity of a first cyclophilin (e.g., CypD) over a second cyclophilin may be measured by the quotient of the IC50 value of the compound in inhibiting the activity of the second cyclophilin over the IC50 value of the compound in inhibiting the activity of the first cyclophilin. The selectivity of a compound described herein in modulating the activity of a first cyclophilin over a second cyclophilin may also be measured by the quotient of the Kd value of an adduct of the compound and the second cyclophilin over the Kd value of an adduct of the compound and the first cyclophilin (e.g., CypD). […] In certain embodiments, selectivity for inhibiting a first cyclophilin over other cyclophilins is measured by Surface Plasmon Resonance (SPR) assays as disclosed in the Examples.
(§4) Following the synthesis of the indicated library members, in vitro inhibition (IC50) assays of these hits were conducted to obtain IC50 inhibitory data. For the IC50 assays, a chymotrypsin coupled PPIase assay using Suc-AAPF-AMC as the peptide substrate was used, whereby isomerization of a peptide substrate Suc-AAPF-AMC from the cis to trans conformation allowed for proteolysis via excess a-chymotrypsin, releasing the C-terminal coumarin fluorophore.
Subsequently, to determine if the compounds could both access the S2 pocket and display CypD specificity, JOMBtrans and compound 49 were screened against the 10 other cyclophilins with reported prolyl isomerase activity. […] Co-crystal structures of JOMBtrans and 49 were solved with CypD.

For the next experiment, the target named is CypD (Homo sapiens, UniProt P30405). In words: chymotrypsin coupled PPIase assay (Suc-AAPF-AMC substrate), CypD inhibition. Type of experiment: biochemical.
Source text: as §3, §4

“Also recorded” adds a separate entry of the source.

Chain of CypD (P30405 30-207): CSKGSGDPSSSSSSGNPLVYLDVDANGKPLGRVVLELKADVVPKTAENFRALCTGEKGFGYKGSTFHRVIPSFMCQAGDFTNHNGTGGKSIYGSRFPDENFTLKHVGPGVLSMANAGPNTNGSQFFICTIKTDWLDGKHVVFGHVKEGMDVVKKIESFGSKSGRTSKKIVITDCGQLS
Chain of CypH (O43447 whole entry): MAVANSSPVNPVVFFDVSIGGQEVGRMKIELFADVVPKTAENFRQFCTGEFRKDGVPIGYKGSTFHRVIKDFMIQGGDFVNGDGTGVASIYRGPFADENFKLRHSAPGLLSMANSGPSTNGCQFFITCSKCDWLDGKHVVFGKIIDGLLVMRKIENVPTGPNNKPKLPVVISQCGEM

Turning to `NCCOCCNC(=O)[C@@H]1CCNC(=O)/C=C/C(=O)N2CCC[C@](Cc3ccccc3)(C2)C(=O)N[C@@H](Cc2ccc(C(=O)c3ccccc3)cc2)C(=O)NCc2ccccc2CC(=O)N1` [A-1], the “inhibition of CypH” value on CypH is recorded as “abolished inhibition”. Also, the “inhibition of CypG” value at CypG is “abolished inhibition”. Further, at NKTR, the “inhibition of NKTR” value was “abolished inhibition”. Also, the “inhibition of PPWD1” value against PPWD1 is reported as “abolished inhibition”.

Take `CC(C)(C)c1ccc(C[C@@H]2NC(=O)[C@]3(Cc4ccccc4)CCCN(C3)C(=O)/C=C/C(=O)NCC[C@@H](C(=O)NCCOCCN)NC(=O)Cc3ccccc3CNC2=O)cc1` [A-9]: the “inhibition of CypH” value at CypH is given as “abolished inhibition”. The “inhibition of CypG” value against CypG is listed as “abolished inhibition”. Moreover, the “inhibition of NKTR” value at NKTR is recorded as “abolished inhibition”. Further, the “inhibition of PPWD1” value against PPWD1 was “abolished inhibition”.

As to `CC(=O)c1ccc(-c2ccc(C[C@@H]3NC(=O)[C@]4(Cc5ccccc5)CCCN(C4)C(=O)/C=C/C(=O)NCC[C@@H](C(N)=O)NC(=O)Cc4ccccc4CNC3=O)cc2)cc1` [A-22b], the “number of tolerated Ca2+ pulses before full mPTP opening” value in experiment [1] is recorded as “extended pulse number”.

Take `NCCOCCNC(=O)[C@@H]1CCNC(=O)/C=C/C(=O)N2CCC[C@](Cc3ccccc3)(C2)C(=O)N[C@@H](Cc2ccc(-c3ccc(C(=O)O)cc3)cc2)C(=O)NCc2ccccc2CC(=O)N1` [A-54]: in experiment [2] (result in words), the “specificity / selectivity profile for CypD (in words)” value (“specificity / selectivity profile” for short) is recorded as “best specificity profiles; also recorded: preference for CypD”.

In the case of `Cc1cc(C(=O)O)ccc1-c1ccc(C[C@@H]2NC(=O)[C@]3(Cc4ccccc4)CCCN(C3)C(=O)/C=C/C(=O)NCC[C@@H](C(=O)NCCOCCN)NC(=O)Cc3ccccc3CNC2=O)cc1` [A-57], in experiment [2] (result in words), the “specificity / selectivity profile” value is “best specificity profiles; also recorded: preference for CypD”.

On to `NCCOCCNC(=O)[C@@H]1CCNC(=O)/C=C/C(=O)N2CCC[C@](Cc3ccccc3)(C2)C(=O)N[C@@H](Cc2ccc(-c3ccc(CC(=O)O)cc3)cc2)C(=O)NCc2ccccc2CC(=O)N1` [A-63], for which the “specificity / selectivity profile” value in experiment [2] (result in words) is on record as “preference for CypD”.

On to `NC(=O)[C@@H]1CCNC(=O)/C=C/C(=O)N2CCC[C@](Cc3ccccc3)(C2)C(=O)N[C@@H](Cc2ccc(-c3ccc(CCC(=O)O)cc3)cc2)C(=O)NCc2ccccc2CC(=O)N1` [A-81b], for which the “number of tolerated Ca2+ pulses before full mPTP opening” value in experiment [1] is “extended pulse number; also recorded: almost as potent as CsA”.

Regarding `NCCOCCNC(=O)[C@@H]1CCNC(=O)/C=C/C(=O)N2CCC[C@](Cc3ccccc3)(C2)C(=O)N[C@@H](Cc2ccc(-c3ccc(/C=C/C(=O)O)cc3)cc2)C(=O)NCc2ccccc2CC(=O)N1` [A-82], the “specificity / selectivity profile” value in experiment [2] (result in words) is “preference for CypD”.

For `NCCOCCNC(=O)[C@@H]1CCNC(=O)/C=C/C(=O)N2CCC[C@](Cc3ccccc3)(C2)C(=O)N[C@@H](Cc2ccco2)C(=O)NCc2ccccc2CC(=O)N1` [compound 49], the “specificity for CypD compared to any other cyclophilins” value in experiment [2] is reported as “approximately 10 fold”. Also, in experiment [2] (result in words), the “decrease in inhibition against other family members compared to CypD” value is reported as “at most a ten-fold decrease” and the “specificity / selectivity profile” value is “low specificity; also recorded: very promiscuous cyclophilin inhibition”. In addition, the “increase in potency compared to JOMBtrans” value on CypD is given as 75 fold. For the same molecule, the IC50 on CypD (read-out: potency for CypD) was found to be 200 nM. The “potency for CypD (in words)” value at CypD (result in words) is given as “low potency”.
